The results in this text go back to article PMC10707071, “Characterization of the Novel Leaderless Bacteriocin, Bawcin, from Bacillus wiedmannii” (International Journal of Molecular Sciences, 2023).

The test system of data set [1] is Bacillus cereus (Ward’s 85W 0200). The class given is cell-based. The protocol: (§1) The MIC of bawcin against each bacterial strain was determined using the spot-on-lawn assay as described previously with modifications. A Mueller Hinton (MH) double-agar plate was prepared by pouring 5 mL of 0.75% MH agar inoculated with 50 µL of 0.10 OD625 bacterial suspension onto 20 mL of dried 1.5% MH agar. Bawcin diluted with sterile water to 128, 64, 32, 16, 8, 4, 2, and 1 µM was spotted in 10 µL aliquots onto the top agar layer, along with 10 µL of an antibiotic positive control (ampicillin or kanamycin) and sterile water negative control. Plates were incubated at 37 °C for 16–20 h and the MIC was identified as the lowest concentration in which a zone of inhibition was observed, where partial bacterial growth within the zone of inhibition was considered HR. Assays were performed in triplicate.

Data set [2] deals with Bacillus subtilis (Ward’s 85W 1650). It counts as cell-based. The procedure: as §1
Data set [3] deals with Enterococcus faecalis (Ward’s 85W 1100). It counts as cell-based. The procedure:
as §1

Data set [4] deals with Lactobacillus casei (Ward’s 85W 1682). It counts as cell-based. The procedure: as §1
In data set [5] the test system is Lactobacillus delbruekii ssp. bulgaricus (VWR 470179-126). The class given is cell-based. The procedure: as §1
Data set [6] relates to Lactococcus lactis ssp. lactis (Ward’s 85W 1774). It counts as cell-based. The protocol:
as §1

Data set [7] relates to Listeria monocytogenes ATCC 19115. The class given is cell-based. The procedure: as §1
The test system of data set [8] is Micrococcus luteus (Ward’s 85W 0966). The class given is cell-based. The procedure:
as §1

For data set [9], the system named is Staphylococcus aureus ATCC 6538. The class given is cell-based. The procedure: as §1
For a further data set, the target named is T1, alpha-chymotrypsin (Bos taurus, UniProt P00766).
T1 construct: purchased Worthington
Briefly: Protease sensitivity testing (residual activity by spot-on-lawn assay). It counts as in vitro ADME. To be noted: 1 mg/mL alpha-chymotrypsin in 50 mM phosphate buffer pH 8, 1 h at 37 °C, bawcin at 1×, 2×, 4× the MIC, spot-on-lawn against M. luteus, triplicate. The protocol:
as §1
(§2) Protease stability testing was evaluated as described previously with modification. Papain (Scholar Chemistry, Rochester, NY, USA), pepsin (Northwest Scientific, Billings, MT, USA), trypsin (Sigma-Aldrich, Burlington, MA, USA), alpha-chymotrypsin (Worthington, Lakewood, NJ, USA), and proteinase K (Fisher Scientific, Ottawa, ON, Canada) were prepared to a final concentration of 1 mg/mL in 50 mM phosphate buffer adjusted to pH 2 (pepsin), 6 (papain), and 8 (proteinase K, trypsin, alpha-chymotrypsin). Bawcin was combined with each protease to final concentrations of 1×, 2×, and 4× the MIC. Bawcin’s residual antimicrobial activity against M. luteus was determined via spot-on-lawn assay as described above. The following samples were spotted for each assay: (1) protease combined with bawcin at each concentration, bawcin alone at each concentration, buffer alone, protease in buffer alone, ampicillin (positive control), and sterile water (negative control), where all solutions were incubated for 1 h at 37 °C prior to spotting except ampicillin and sterile water. Assays were performed in triplicate.

In another data set the target is T2, papain (Carica papaya, UniProt P00784).
T2 construct: purchased Scholar Chemistry
T2 sequence (P00784 134-345): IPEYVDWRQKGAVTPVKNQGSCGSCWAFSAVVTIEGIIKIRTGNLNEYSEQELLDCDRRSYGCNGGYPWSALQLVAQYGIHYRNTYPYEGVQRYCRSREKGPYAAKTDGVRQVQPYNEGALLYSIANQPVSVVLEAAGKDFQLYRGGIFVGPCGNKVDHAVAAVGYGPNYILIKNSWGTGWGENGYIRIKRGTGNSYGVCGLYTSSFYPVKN
The description is as above. It counts as in vitro ADME. To be noted: spot-on-lawn against M. luteus, triplicate. The procedure:
as §1, §2

The next data set has as its target T3, pepsin (Sus scrofa, UniProt P00791).
T3 construct: purchased Northwest Scientific
The data set is described as above. The class given is in vitro ADME. The conditions noted are these: 1 mg/mL pepsin in 50 mM phosphate buffer pH 2, 1 h at 37 °C, bawcin at 1×, 4× the MIC (8, 16, 32 µM), spot-on-lawn against M. luteus, triplicate. The procedure:
as §1, §2

The target in another data set is T4, proteinase K (Parengyodontium album, UniProt P06873).
T4 construct: purchased Fisher Scientific
T4 sequence (P06873 106-384): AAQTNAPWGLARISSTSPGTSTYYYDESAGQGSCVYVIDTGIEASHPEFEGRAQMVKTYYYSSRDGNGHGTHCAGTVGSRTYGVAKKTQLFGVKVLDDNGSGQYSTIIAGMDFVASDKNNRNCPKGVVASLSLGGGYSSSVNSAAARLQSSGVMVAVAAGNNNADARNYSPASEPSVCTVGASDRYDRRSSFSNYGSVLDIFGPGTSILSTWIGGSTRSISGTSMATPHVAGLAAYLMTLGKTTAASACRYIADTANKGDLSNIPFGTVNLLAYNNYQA
The data set is described as above. The class given is in vitro ADME. To be noted: 1 mg/mL proteinase K in 50 mM phosphate buffer pH 8, 1 h at 37 °C, bawcin at 1×, 2×, 4× the MIC, spot-on-lawn against M. luteus, triplicate. The protocol:
as §1, §2

The next data set relates to trypsin. The description is as above. The conditions noted are these: 1 mg/mL trypsin in 50 mM phosphate buffer pH 8, 1 h at 37 °C, bawcin at 1×, 2×, 4× the MIC, spot-on-lawn against M. luteus, triplicate. It counts as in vitro ADME. The protocol:
as §1, §2

No end group written: not given here.

T3 sequence (P00791 60-385): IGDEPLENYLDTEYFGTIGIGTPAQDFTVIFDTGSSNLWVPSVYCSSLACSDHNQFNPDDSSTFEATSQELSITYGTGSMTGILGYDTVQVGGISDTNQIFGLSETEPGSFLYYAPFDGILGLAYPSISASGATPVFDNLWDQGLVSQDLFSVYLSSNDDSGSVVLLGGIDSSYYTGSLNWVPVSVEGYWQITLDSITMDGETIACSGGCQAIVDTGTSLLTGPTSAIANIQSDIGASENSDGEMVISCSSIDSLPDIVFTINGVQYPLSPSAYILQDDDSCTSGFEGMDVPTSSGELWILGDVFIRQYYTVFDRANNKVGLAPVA

For “MLSFAKLVARLSASKAKWAWNNKGKVVEWIKNGATFEWISNKIDQMMG [bawcin]”, the MIC in data set [1] worked out at 16 µM; in data set [2], 8 µM; in data set [3], 32 µM; in data set [4], 8 µM; in [5], 8 µM; in data set [6] it was 4 µM. The figures for the MIC in [7], in [8] and in [9] were 8 µM, 4 µM and 16 µM, respectively. Moreover, the “Residual antimicrobial activity in the presence of alpha-chymotrypsin” value at alpha-chymotrypsin is “lost antimicrobial activity at all concentrations tested”. Besides, the “Residual antimicrobial activity when combined with papain” value on papain (1 mg/mL papain in 50 mM phosphate buffer pH 6, 1 h at 37 °C, bawcin at 1×, 2×, 4× the MIC (8, 16, 32 µM)) was “retained its antimicrobial activity”. Also, on papain (1 mg/mL papain, pH 6, 1 h at 37 °C, 32, 16, 8 µM tested), the “Lowest bawcin concentration remaining active in combination with papain” value came out at 8 µM. The “Residual antimicrobial activity when combined with pepsin” value on pepsin was “only at 4× the MIC (with HR)”. Moreover, the “Residual antimicrobial activity in the presence of proteinase K” value at proteinase K was “lost antimicrobial activity at all concentrations tested”. The “Residual antimicrobial activity in the presence of trypsin” value in the data set on trypsin is “lost antimicrobial activity at all concentrations tested”.

The MIC is the least concentration at which growth counts as inhibited. Read a low MIC as greater potency.
